Literature values in US20160184332A1, “MEDICAMENT COMPRISING A PHARMACEUTICAL COMBINATION OF DRUGS” (priority 2013, published 2016).

Tests used:
[1] = system: cytochrome P450 (CYP) isozymes; conditions: in vitro
CYP3A4 = CYP3A4 (Homo sapiens, UniProt P08684); conditions: minor route; primary route of metabolism is glucuronidation
[2] = system: human CYP 450 isoenzymes: 1A2, 2A6, 2B6, 2C9, 2C19, 2D6 and 3A4
[3] = system: uridine-5-5′-diphosphoglucuronyl transferase; conditions: enzyme responsible for glucuronidation

CYP3A4, sequence (P08684 whole entry): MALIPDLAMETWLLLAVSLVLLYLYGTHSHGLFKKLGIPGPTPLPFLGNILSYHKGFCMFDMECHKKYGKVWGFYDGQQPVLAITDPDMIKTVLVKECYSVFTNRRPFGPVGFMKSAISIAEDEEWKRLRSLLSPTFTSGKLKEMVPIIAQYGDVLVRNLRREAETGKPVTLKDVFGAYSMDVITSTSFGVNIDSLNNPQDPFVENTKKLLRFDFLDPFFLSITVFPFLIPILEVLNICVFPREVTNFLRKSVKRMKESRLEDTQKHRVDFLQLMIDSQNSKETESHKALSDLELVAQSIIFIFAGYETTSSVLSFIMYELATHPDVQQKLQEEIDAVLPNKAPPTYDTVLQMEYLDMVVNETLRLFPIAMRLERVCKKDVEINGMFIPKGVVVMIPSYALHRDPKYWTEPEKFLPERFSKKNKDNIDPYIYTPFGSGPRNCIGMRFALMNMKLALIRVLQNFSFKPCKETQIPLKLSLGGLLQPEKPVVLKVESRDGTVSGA

Row | Structure (SMILES) | induction or inhibition of cytochrome P450 (CYP) isozymes [1] | extent to which it is a substrate of CYP3A4 (CYP3A4) | inhibition of in vitro drug metabolism mediated by human CYP 450 isoenzymes [2] | inhibition of uridine-5-5′-diphosphoglucuronyl transferase [3]
1 | C[C@@H]1CCO[C@H]2Cn3cc(C(=O)NCc4ccc(F)cc4F)c(=O)c(O)c3C(=O)N12 [dolutegravir, (4R,12aS)—N-(2,4-difluorobenzyl)-7-hydroxy-4-methyl-6,8-dioxo-3,4,6,8,12,12a-hexa-hydro-2H-pyrido[1′,2′:4,5]pyrazino[2,1-b][1,3]oxazine-9-carboxamide] | demonstrates induction or inhibition | about 15% | – | –
2 | Nc1nc(=O)n([C@@H]2CS[C@H](CO)O2)cc1F [emtricitabine, 5-fluoro-1-(2R,5S)-[2-(hydroxymethyl)-1,3 oxathiolan-5-yl]cytosine] | – | – | does not inhibit | does not inhibit
